13 compounds from patent publication US20210403435A1, “HERBICIDAL COMPOUNDS” (SYNGENTA CROP PROTECTION AG, priority 2018, published 2021) can be followed below.

What all share (test): Post-emergence efficacy, glasshouse, evaluated after 13 days
Holding throughout (format): in vivo

Assay [1] concerns Amaranthus palmeri (AMAPA). The note with it: post-emergence application, 500 g/Ha, evaluated after 13 days; for pest or weed control at 500 g/ha: Amaranthus palmeri, 312 h, read-out: Control of weed species AMAPA (100=total damage to plant; 0=no damage to plant). An outline of the steps:
(§1)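 Glasshouse post-emergence test: 14-day plants sprayed, then maintained at 24/16 °C day/night, 14 h photoperiod, 65% humidity. Evaluation at day 13 uses a percentage damage scale (100 = plant fully damaged).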

The subject of assay [2] is Eleusine indica (ELEIN). The note with it: post-emergence application, 500 g/Ha, evaluated after 13 days; for pest or weed control at 500 g/ha: Eleusine indica, 312 h, read-out: Control of weed species ELEIN (100=total damage to plant; 0=no damage to plant). The procedure, abridged: as §1
Assay [3] concerns Lolium perenne (LOLPE). The settings on record: post-emergence application, 500 g/Ha, evaluated after 13 days; for pest or weed control at 500 g/ha: Lolium perenne, 312 h, read-out: Control of weed species LOLPE (100=total damage to plant; 0=no damage to plant). The procedure, abridged:
as §1

Assay [4] has as its system Digitaria sanguinalis (DIGSA). The note with it: post-emergence application, 500 g/Ha, evaluated after 13 days; for pest or weed control at 500 g/ha: Digitaria sanguinalis, 312 h, read-out: Control of weed species DIGSA (100=total damage to plant; 0=no damage to plant). An outline of the steps: as §1
Assay [5] relates to Setaria faberi (SETFA). The note with it: post-emergence application, 500 g/Ha, evaluated after 13 days; for pest or weed control at 500 g/ha: Setaria faberi, 312 h, read-out: Control of weed species SETFA (100=total damage to plant; 0=no damage to plant). The procedure, abridged: as §1
Assay [6] relates to Euphorbia heterophylla (EPHHL). The note with it: post-emergence application, 500 g/Ha, evaluated after 13 days; for pest or weed control at 500 g/ha: Euphorbia heterophylla, 312 h, read-out: Control of weed species EPHHL (100=total damage to plant; 0=no damage to plant). An outline of the steps:
as §1

In assay [7] the test system is Chenopodium album (CHEAL). The note with it: post-emergence application, 500 g/Ha, evaluated after 13 days; for pest or weed control at 500 g/ha: Chenopodium album, 312 h, read-out: Control of weed species CHEAL (100=total damage to plant; 0=no damage to plant). An outline of the steps: as §1
Assay [8] relates to Ipomoea hederacea (IPOHE). The note with it: post-emergence application, 500 g/Ha, evaluated after 13 days; for pest or weed control at 500 g/ha: Ipomoea hederacea, 312 h, read-out: Control of weed species IPOHE (100=total damage to plant; 0=no damage to plant). The procedure, abridged: as §1
In assay [9] the test system is Echinochloa crus-galli (ECHCG). The settings on record: post-emergence application, 500 g/Ha, evaluated after 13 days; for pest or weed control at 500 g/ha: Echinochloa crus-galli, 312 h, read-out: Control of weed species ECHCG (100=total damage to plant; 0=no damage to plant). An outline of the steps: as §1

Consider `COCCNC(=O)c1cc[n+](CCS(=O)(=O)[O-])nc1` [Compound A52], for which the pest or weed control at 500 g/ha in assay [1] was 100%; in assay [2] it was 20%; in assay [3] it was 30%; in assay [4] it was 90%; in assay [5], 80%; in [6], 60%. Further, the pest or weed control at 500 g/ha is 100% in assay [7], 60% in assay [8] and 80% in assay [9].

For `CNC(=O)c1cn[n+](CCC(=O)O)cc1C` [Compound A53], the pest or weed control at 500 g/ha in assay [1] worked out at 90%; in assay [2], 40%; in assay [3], 20%; in assay [4], 80%; in assay [5] it was 90%; in assay [6] it was 60%. The pest or weed control at 500 g/ha in assay [7] stood at 70%; in assay [8] it was 50%; in [9], 70%.

Turning to `O=C(O)CC[n+]1ccc(C(=O)NC2CCCCC2)cn1` [Compound A59], the pest or weed control at 500 g/ha in assay [1] was 70%; in assay [2], 20%; in assay [3], 20%; in [4], 60%; in assay [5] it was 30%; in assay [6] it was 10%. The pest or weed control at 500 g/ha in assay [7] came out at 50%; in assay [8] it was 20%; in [9] it was 20%.

In the case of `CCNC(=O)c1cc[n+](CC(C)C(=O)O)nc1` (stereo not drawn) [Compound A60], the pest or weed control at 500 g/ha turned out to be 100% in [1]; 100% in [2]; 100% in assay [3]; 100% in assay [4]; 100% in [5]; 90% in assay [6]. Also, the pest or weed control at 500 g/ha in assay [7] came to 20%; in assay [8], 70%; in assay [9], 60%.

For `CCNC(=O)c1cc[n+](C(C)CC(=O)O)nc1` (stereo not drawn) [Compound A61], the pest or weed control at 500 g/ha is 100% in [1]; 90% in assay [2]; 80% in assay [3]; 100% in assay [4]; 50% in [5]; 80% in [6]. For the same compound, the results for the pest or weed control at 500 g/ha in assay [7], in assay [8] and in [9] were 90%, 70% and 50%, respectively.

`CC(CC(=O)O)[n+]1ccc(C(=O)NC2(C#N)CC2)cn1` (stereo not drawn) [Compound A62]: the pest or weed control at 500 g/ha amounted to 100% in [1]; 90% in [2]; 70% in assay [3]; 70% in [4]; 70% in assay [5]; 100% in [6]. Moreover, the values for the pest or weed control at 500 g/ha in assay [7], in assay [8] and in assay [9] were 90%, 30% and 80%, respectively.

Take `CN(C)C(=O)c1cn[n+](CCS(=O)(=O)O)cc1-c1ccccc1` [Compound A64]: the pest or weed control at 500 g/ha in assay [1] turned out to be 100%; in [2], 40%; in [3], 20%; in assay [4] it was 40%; in assay [5] it was 30%; in assay [6], 40%. Also, the pest or weed control at 500 g/ha in [7] worked out at 30%; in assay [8], 30%; in assay [9], 50%.

As to `O=C(O)CC[n+]1ccc(C(=O)NCC2CC2)cn1` [Compound A65], the pest or weed control at 500 g/ha turned out to be 90% in assay [1]; 90% in assay [2]; 50% in assay [3]; 100% in assay [4]; 100% in assay [5]; 100% in assay [6]. Also, the results for the pest or weed control at 500 g/ha in assay [7], in assay [8] and in assay [9] were 90%, 20% and 50%, respectively.

On to `O=C(O)CC[n+]1ccc(C(=O)NC2CSC2)cn1` [Compound A69], for which the pest or weed control at 500 g/ha in assay [1] is 90%; in [2], 30%; in [3], 40%; in assay [4], 100%; in assay [5], 100%; in assay [6] it was 70%. Also, the pest or weed control at 500 g/ha in [7] was 60%; in assay [8], 40%; in [9], 100%.

Regarding `CCNC(=O)c1cc[n+](C(C)(C)CC(=O)O)nc1` [Compound A71], the pest or weed control at 500 g/ha in assay [1] came out at 100%; in assay [2], 30%; in assay [3], 30%; in [4] it was 60%; in [5], 30%; in assay [6], 20%. Also, the figures for the pest or weed control at 500 g/ha in assay [7], in assay [8] and in assay [9] were 70%, 60% and 30%, respectively.

For `CN(NC(=O)c1cc[n+](CCC(=O)O)nc1)C(=O)OC(C)(C)C.O=C([O-])C(F)(F)F` [Compound A72], the “Control of weed species AMAPA (100=total damage to plant; 0=no damage to plant)” value in [1] turned out to be 100. In addition, in assay [2], the “Control of weed species ELEIN (100=total damage to plant; 0=no damage to plant)” value is 30. Besides, the “Control of weed species LOLPE (100=total damage to plant; 0=no damage to plant)” value in assay [3] came out at 20. Further, the “Control of weed species DIGSA (100=total damage to plant; 0=no damage to plant)” value in assay [4] was determined as 40. Also, the “Control of weed species SETFA (100=total damage to plant; 0=no damage to plant)” value in [5] turned out to be 20. The “Control of weed species EPHHL (100=total damage to plant; 0=no damage to plant)” value in [6] is 20. Further, the “Control of weed species CHEAL (100=total damage to plant; 0=no damage to plant)” value in assay [7] was 20. For the same compound, the “Control of weed species IPOHE (100=total damage to plant; 0=no damage to plant)” value in assay [8] was determined as 20. For the same compound, the “Control of weed species ECHCG (100=total damage to plant; 0=no damage to plant)” value in [9] was 20.

For `CCNC(=O)c1cc[n+](CCNS(=O)(=O)C(F)(F)F)nc1` [Compound A73], the pest or weed control at 500 g/ha in assay [1] amounted to 100%; in assay [2] it was 90%; in assay [3], 60%; in [4], 90%; in assay [5], 60%; in assay [6], 90%. Also, the pest or weed control at 500 g/ha stood at 90% in assay [7], 80% in assay [8] and 80% in assay [9].

As for `CCNC(=O)c1cc[n+](CCCC(=O)O)nc1` [Compound A74], the pest or weed control at 500 g/ha in assay [1] stood at 100%; in [2], 80%; in [3] it was 80%; in [4], 80%; in [5], 70%; in assay [6] it was 60%. The pest or weed control at 500 g/ha in assay [7] was found to be 90%; in assay [8], 40%; in assay [9], 60%.
